Literature values, collected in publication PMC8091910 (Proteins, 2019).

Legend:
[1] = system: pancreatic cancer cell (RWP1); details: human peptide library screen

## RTLSQLYCSYGPLT [C-terminal MUS81 peptide]
MUS81–EME1 complex
  disruption / inhibition of MUS81–EME1 complex: disrupting the MUS81–EME1 complex
[1]
  reduction of cell viability: significantly reduced cell viability
Cancer cell lines
  reduction of cell viability in cancer cell lines: reducing cell viability in cancer cell lines
EME1
  binding to EME1: binds to EME1
